According to US9040713B2, “Methods of managing blood sugar levels and compositions related thereto” (EMORY UNIVERSITY, priority 2010, dated 2015):

How the values were obtained:
IR = IR (Homo sapiens, UniProt P06213); test: IR phosphorylation in transfected HEK293 cells (Western blot); type: cell-based; design: expressed in transfected cells; host or cells: HEK293; conditions: 4524-E7 5 μM, insulin 100 nM
Method: Cells were lysed, and IR phosphorylations were tested by ELISA. The IR phosphorylation activities of the tested compounds were expressed as a percentage of the vehicle. […] The cell lysates were analyzed by immunoblotting with various indicated antibodies. The phosphorylated IR was immunoprecipitated using PY20 and analyzed by immunoblotting with anti-IR13 antibody. […] The phosphorylation of each receptor was determined by Western blot using specific antibodies as indicated. […] Then the cells were lysated and the transfected receptor fused to His tag were pulled down with Ni+ beads, followed by western blot against anti-p-Tyr and anti-His. The cell lysates were tested with anti-p-Akt and anti-Akt.
Whether 4524-E7 can activate other receptors of RTK family was tested. […] To further explore the specificity, several hybrid recombinant RTKs were generated by replacing IGFR and EGFR's extracellular domain (ECD) with IR's ECD. Moreover, IGFR's intracellular domain (ICD) was substituted with IR's ICD, and the His-tagged receptors were transfected into CHO cells and treated with 4524-E7 for 30 min.

ob/ob mice = test: Intraperitoneal glucose tolerance test in ob/ob mice; type: in vivo, mouse; conditions: 5 mg/kg oral, glucose 2 g/kg i.p. 1 hour later
Method: Three-month-old mice were starved for 12 h and then orally administrated with vehicle (0.5% methylcellulose) or DDN (5 mg/kg). Cell lysates were prepared from liver and muscle tissues collected at 1 and 2 h after drug administration and analyzed by immunoprecipitation and immunoblotting. […] Three-month-old mice were starved for 12 h and then orally administrated with vehicle (0.5% methylcellulose) or DDN (5 mg/kg). Cell lysates were prepared from liver and muscle tissues collected at 1 and 2 h after drug administration and analyzed by immunoprecipitation and immunoblotting. (C) Hypoglycemic function of DDN in db/db mice. […] Blood glucose was monitored before and after drug administration at 1-hour intervals (*: P<0.05, **: P<0.01, n=5, Two-way ANOVA vs vehicle). […] Blood glucose was measured at 30-min intervals (*: P<0.05, **:P<0.01, n=5, Two-way ANOVA vs vehicle control).
(A) 4524-E7 provokes IR phosphorylation in various tissues of mice. […] Cell lysates from liver, muscle, and WAT were prepared at 3, 4, and 5 h after drug administration and analyzed by immunoblotting. (B) Basal and insulin-stimulated hepatic glucose production rates were measured by hyperinsulinemic-euglycemic clamp. […] Blood glucose was monitored at different time points as indicated (n=8, *: P<0.05, two-way ANOVA). […] Blood glucose was monitored at different time points as indicated (n=5, *: P<0.05, two-way ANOVA). […]

mice = test: Repeated dosing tolerability in mice; type: in vivo, mouse
Method: […] Mice were chronically treated with 4524-E7 for 2 weeks and tested if the compound can inhibit food intake.
In liver and muscle, DDN elicited demonstrable IR activation after 3-4 h (FIG. 3B, 1st panel). […] The liver was then dissected and homogenized after 5 min. […] Similarly to the observation in C57/BL6 mice, DDN induces IR signaling in the well-established mice models of non-insulin-dependent diabetes mellitus.

IGFR-IR hybrid = test: His-tagged chimaeric receptor phosphorylation in CHO cells; type: cell-based, human; conditions: 5 μM, 30 min
Method: (A) Chemical structure of 4524-E7. (B) Effect of 4524-E7 and other 1,4-naphthoquinone derivatives on IR phosphorylation in CHO-IR cells. CHO-IR cells were cultured in 96-well plates and treated with 5 μM compounds for 15 min at 37 C. Cells were lysed, and IR phosphorylations were tested by ELISA. The IR phosphorylation activities of the tested compounds were expressed as a percentage of the vehicle. (C) 4524-E7 and 1,4-naphthoquinone derivates activate IR and its downstream signaling in CHO-IR cells. […] The cell lysates were analyzed by immunoblotting with various indicated antibodies. The phosphorylated IR was immunoprecipitated using PY20 and analyzed by immunoblotting with anti-IR13 antibody. […] The phosphorylation of each receptor was determined by Western blot using specific antibodies as indicated. (E) 4524-E7 activates IR through its ICD. Upper panel: Diagram of chimaeric receptors. Lower panel: His-tagged wild-type IR, IGFR-IR, IR-IGFR, and IR-EGFR constructs were transfected into CHO cells followed vehicle or 5 μM 4524-E7 treatment for 30 min. Then the cells were lysated and the transfected receptor fused to His tag were pulled down with Ni+ beads, followed by western blot against anti-p-Tyr and anti-His. The cell lysates were tested with anti-p-Akt and anti-Akt.
The cDNA encoding wild type IR was introduced into the pcDNA3.1/V5-His-TOPO vector. […]

[1] = C57BL/6J mice, 5 mg/kg daily oral, 16 days

IR, sequence (P06213 28-1382): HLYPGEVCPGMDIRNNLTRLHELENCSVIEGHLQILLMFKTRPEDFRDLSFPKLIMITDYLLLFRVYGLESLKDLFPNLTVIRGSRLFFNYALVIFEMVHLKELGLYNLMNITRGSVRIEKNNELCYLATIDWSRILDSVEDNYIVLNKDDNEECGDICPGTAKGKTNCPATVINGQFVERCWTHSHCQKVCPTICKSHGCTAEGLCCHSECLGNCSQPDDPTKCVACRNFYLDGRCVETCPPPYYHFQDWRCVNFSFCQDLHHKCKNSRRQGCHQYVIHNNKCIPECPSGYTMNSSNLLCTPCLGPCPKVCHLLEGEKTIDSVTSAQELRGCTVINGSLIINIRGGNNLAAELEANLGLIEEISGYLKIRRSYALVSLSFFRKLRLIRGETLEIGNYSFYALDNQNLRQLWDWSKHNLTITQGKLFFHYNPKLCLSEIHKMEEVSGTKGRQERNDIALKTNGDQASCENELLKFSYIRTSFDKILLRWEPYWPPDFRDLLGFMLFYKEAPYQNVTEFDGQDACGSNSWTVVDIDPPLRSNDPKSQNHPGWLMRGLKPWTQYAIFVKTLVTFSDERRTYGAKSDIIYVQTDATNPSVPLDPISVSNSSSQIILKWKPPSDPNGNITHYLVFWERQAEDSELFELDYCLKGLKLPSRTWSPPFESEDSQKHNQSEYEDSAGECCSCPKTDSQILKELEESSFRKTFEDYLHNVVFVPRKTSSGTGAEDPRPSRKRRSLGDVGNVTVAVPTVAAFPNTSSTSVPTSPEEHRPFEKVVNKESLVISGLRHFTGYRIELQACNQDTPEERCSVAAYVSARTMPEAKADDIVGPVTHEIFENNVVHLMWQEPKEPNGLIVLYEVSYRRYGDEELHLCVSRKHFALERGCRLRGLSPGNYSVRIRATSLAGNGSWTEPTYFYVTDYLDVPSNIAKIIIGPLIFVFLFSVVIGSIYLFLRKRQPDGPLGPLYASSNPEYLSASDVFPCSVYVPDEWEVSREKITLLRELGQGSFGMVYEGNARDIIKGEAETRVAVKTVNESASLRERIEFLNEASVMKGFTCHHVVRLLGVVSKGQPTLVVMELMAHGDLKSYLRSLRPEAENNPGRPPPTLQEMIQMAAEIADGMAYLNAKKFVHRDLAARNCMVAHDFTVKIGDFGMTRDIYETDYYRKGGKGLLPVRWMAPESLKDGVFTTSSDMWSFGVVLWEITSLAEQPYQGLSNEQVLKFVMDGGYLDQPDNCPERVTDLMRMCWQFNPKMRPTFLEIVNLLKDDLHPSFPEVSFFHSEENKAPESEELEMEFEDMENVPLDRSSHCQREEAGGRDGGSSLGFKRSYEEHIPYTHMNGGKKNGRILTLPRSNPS

Structure (SMILES) | IR activation (IR) | glucose tolerance (ob/ob mice) | blood chemistry analysis (mice; 5 mg/kg, 2 weeks) | food intake and body weight compared to vehicle control (mice; 5 mg/kg, 2 weeks) | pathological examination on all major organs (mice; two week period) | tyrosine phosphorylation of chimaeric receptor (IGFR-IR hybrid) | food intake and blood biochemistry (mice; [1]) | pathological examination of brain, heart, liver, kidney and muscle (mice; [1]) | side effects (mice; administrated to animals for two weeks)
O=C1c2ccccc2C(=O)C2SC(Nc3ccc(Cl)cc3)=NC12 (stereo not shown) [4524-E7, 2-((4-chlorophenyl)amino)naphtho[2,3-d]thiazole-4,9(3aH,9aH)-dione] | selectively activated | significant improvement of glucose tolerance | comparable results between drug-treated mice and vehicle control | not significantly changed | no demonstrable toxicity was detected | selective tyrosine phosphorylation |  |  | 
CC(=O)Oc1ccc(OC(C)=O)c2c1C(=O)C(Cl)=C(Cl)C2=O [DDN, 5,8-diacetyloxy-2,3-dichloro-1,4-naphthoquinone] |  | significant improvement in glucose tolerance |  |  |  |  | did not affect the food intake, or blood biochemistry | failed to detect any demonstrable toxicity | does not exhibit any intolerable side effects
